The results in this text go back to PMC9636186 (Nature Communications, 2022).

In this assay the target is T1, IBD (ItcR itaconate-binding domain) (Yersinia pseudotuberculosis, UniProt A0A0H3B558).
T1 construct: gene YPK_2265
The conditions noted are these: protein:itaconate molar ratio 1:100, Bis-Tris pH 6.5, PEG300, 20 °C; SeMet form 7W06.

T1 sequence (A0A0H3B558 80-292 limits assumed): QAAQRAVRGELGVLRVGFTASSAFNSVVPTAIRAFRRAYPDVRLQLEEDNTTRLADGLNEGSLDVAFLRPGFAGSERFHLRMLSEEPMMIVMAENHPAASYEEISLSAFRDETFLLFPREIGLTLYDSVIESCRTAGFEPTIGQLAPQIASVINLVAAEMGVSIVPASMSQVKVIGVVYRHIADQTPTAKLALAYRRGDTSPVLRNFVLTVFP

With `C=C(CC(=O)O)C(=O)O` [itaconate], the structure of complex result is “crystal structure of IBD without or with itaconate binding was determined”.
